Experimental findings from US10548829B2, “Oral care compositions and methods of use” (priority 2016, dated 2020) are described below.

The test system of assay [1] is Aggregatibacter actinomycetemcomitans. The assay is described as follows: Growth inhibition (OD610), single culture. Type of assay: cell-based. Conditions: Aggregatibacter actinomycetemcomitans. How it is done: (§1) Single species of Streptococcus gordonii (S. gordonii, S.g) strain V288 (ATCC #35105), Streptococcus sobrinus (S. sobrinus, S.$) strain SL1[CCM 6070, CNCTC 9/89] (ATCC #33478), or Aggregatibacter actinomycetemcomitans were analyzed. Also, a mixed culture containing Actinomyces viscosus (A. viscosus, A.v) strain (ATCC, #43146), Lactobacillus casei (L. casei, L.c) strain (ATCC #334), Streptococcus oralis (S. oralis, S. o) strain (ATCC #35037), Fusobacterium nucleatum (F. nucleatum, F. n) strain (ATCC #10953), and Veilonella parvula (V. parvula, V. p) strain (ATCC #17745) was also analyzed for growth inhibition/toxicity activity. Bacteria were cultured overnight in approximately 20 ml of BHI broth (BD, cat #237500) or maintained in a specialized complex modified BHI II medium in a continuous culture chemostat at 37° C. respectively. The following day, the OD610 were determined and solutions diluted to an OD610 of 0.2 or 0.1 respectively for the assay.
(§2) Triclosan (positive control) was prepared as a 10% stock in 100% EtOH and 3 fold serial dilutions were performed in 100% EtOH. An appropriate amount of the diluted samples was then transferred into a 96 well clear plate such that the resulting final concentration of the test samples ranged from either a 2 mM or 4 mM (highest concentration) to 0.0078 mM or 0.0156 mM (lowest concentration respectively) in 2% DMSO in 100 μl media per well. Triclosan (TCN) ranged from 0.01% to 1.67e-6% in 1% EtOH. For Zinc acetate, in order to mimic the 2:1 molar ratio (ligand:Zinc) in the Naringin:Zinc complex, the final concentration ranged from 0.7 mM to 0.0027 mM for samples with 2 mM as the highest concentration and 1.33 mM to […] for samples with 4 mM as the highest concentration in 2% DMSO. Next, 100 μl of bacterial culture at OD610 0.2 were introduced to the wells with the test samples. The wells were thoroughly mixed and incubated at 37° C. overnight. The plates were read using an Envision plate reader (PerkinElmer, Waltham, Mass.) at 610 nm.
(§3) The IC50 for the complex, Product 5, was determined for Streptococcus gordonii (S. gordonii), Streptococcus sobrinus (S. sobrinus), Aggregatibacter actinomycetemcomitans (A. actinomycetemcomitans), and also for the mixed bacterial culture. […] Triclosan (TCN) was included as a positive control for bacterial inhibition.
(§4) Further characterization was performed on planktonic oral microbes; Streptococcus sobrinus (Cariongenic—strain-SL1[CCM 6070, CNCTC 9/89] (ATCC cat. #33478), Streptococcus gordonii (Arginolytic—strain V288 (ATCC cat. #35105), Actinomyces viscosus) as well late colonizer (Gram −), pathogenic Aggregatibacter actinomycetemcomitans. All microbes were grown in their respective culture media: Streptococcus sobrinus and Streptococcus gordonii in BHI broth (BD, cat #237500), Aggregatibacter actinomycetemcomitans in BHI broth supplemented with 0.5% Yeast Extract (BD, cat #210941) and Actinomyces viscosus in Trypticase Soy Broth (BD, cat #211768) supplemented with 0.5% Yeast Extract (BD, cat #210941). Bacteria were cultured overnight in 37° C., 5% CO2 in approximately 20 ml of the appropriate culture broth. The following day, the OD610 was determined and solutions were diluted to 0.2 for the assay.
(§5) Triclosan (positive control) was prepared as a 10% stock in 100% EtOH and 3 fold serial dilutions were done in 100% EtOH. […] For Naringin+Zinc combination, while the highest total overall concentration was 2 mM, the exact concentration was Naringin (1.3 mM) and Zinc Acetate (0.7 mM) due to the compositions 2:1 molar ratio. For Zinc Acetate, in order to mimic the 2:1 ratio (ligand:Zinc) composition as in the complex, the final concentration ranged from 0.7 mM to 0.0027 mM in 2% DMSO.
(§6) A 100 μl aliquot of bacterial culture at OD610 0.2 were introduced to the wells with the test samples. The wells were thoroughly mixed and plates incubated overnight in a 37° C. incubator with or without 5% CO2 depending upon the bacterial species.

The test system of another assay is Streptococcus gordonii. Nature of the assay: Growth inhibition (OD610), single culture. The note with it: Streptococcus gordonii. Type of assay: cell-based. How it is done:
as §1, §2, §3, §4, §5, §6

The test system of a further assay is Streptococcus sobrinus. Nature of the assay: Growth inhibition (OD610), single culture. Type of assay: cell-based. The note with it: Streptococcus sobrinus. How it is done: as §1, §2, §3, §4, §5, §6
Assay [2] can be described thus: Growth inhibition (OD610), mixed chemostat culture. Type of assay: cell-based, A. viscosus, L. casei, S. oralis, F. nucleatum, V. parvula. How it is done:
as §1, §2, §3
(§7) Antimicrobial characterization was also performed on mixed culture solutions having at least five microbial species present. A mixed culture containing Actinomyces viscosus (A. viscosus, A.v) (ATCC, #43146), Lactobacillus casei (L. casei, L.c) (ATCC #334), Streptococcus oralis (S. oralis, S.o) (ATCC #35037), Fusobacterium nucleatum (F. nucleatum, F.n) (ATCC #10953) and Veilonella parvula (V. parvula, V.p) (ATCC #17745) was maintained in a specialized complex medium (Modified BHI II Medium) in a continuous culture chemostat at 37° C. Approximately 10 ml of the culture was removed and the OD610 was determined. The assay was performed using cultures at two concentrations; 0.03 and 0.1 at OD610. […] Triclosan (positive control) was prepared as a 10% stock in 100% EtOH and 3 fold serial dilutions were performed in 100% EtOH. […] For Zinc Acetate, in order to mimic the 2:1 ratio (ligand:Zinc) composition as in the complex, the final concentration range from 0.7 mM to 0.0027 mM in 2% DMSO was used instead.
(§8) A 100 μl of bacterial culture at chosen OD610 (0.03 or 0.1) was introduced into the wells with the test samples. The wells were thoroughly mixed and plates incubated overnight in a 37° C. incubator with or without 5% CO2. After approximately 12-13 hours of treatment, the plate was read using Envision plate reader (Serial #1040984), absorbance at 610 nm. The % inhibition relative to control was determined as described for previously described antimicrobial protocols, supra.

Assay [3] has as its system mixed culture containing Actinomyces viscosus, Lactobacillus casei, Streptococcus oralis, Fusobacterium nucleatum and Veilonella parvula. Nature of the assay: Growth inhibition (OD610), mixed chemostat culture. Type of assay: cell-based, A. viscosus, L. casei, S. oralis, F. nucleatum, V. parvula. The note with it: mixed species cultures; 1% EtOH; data not shown. How it is done: as §1, §2, §3, §7, §8

The subject of assay [4] is planktonic oral bacterial species (S. sobrinus, S. gordonii, A. actinomycetemcomitans, A. viscosus, mixed cultures). The assay is described as follows: Growth inhibition, summary statements over the single, co- and mixed cultures tested. The class given is cell-based, oral bacteria. How it is done:
as §1, §2, §3, §4, §5, §6

As to `Oc1cc(Cl)ccc1Oc1ccc(Cl)cc1Cl` [TCN, Triclosan], the IC50 in assay [1] is 0.61 ± 0.46 µM; with Streptococcus gordonii it was 6 ± 0.85 µM; with Streptococcus sobrinus, 6 ± 1.7 µM; in assay [2] (Mixed Species (aerobic)), 7.6 µM; in assay [2] (Mixed Species (anaerobic)) it was 4.8 µM; in assay [4] (read-out: concentration that inhibited 50% of the bacterial growth (IC50), range over cultures tested), 0.61 to 7.6 µM. For the same compound, the “IC50 of positive control, range in ppm” value in assay [3] is on record as 1.4-2.2 ppm; in assay [4] (same species of bacteria cultures (single and co-cultures), 1% EtOH), 1-2.7 ppm. Besides, in assay [4] (S. sobrinus, S. gordonii, A. actinomycetemcomitans and mixed chemostat cultures), the “IC50 range over cultures tested, corresponding ppm” value is given as 0.18-2.2 ppm.
